Where two headings read alike, the source gives them in different places.

In one data set the test system is HIV-1 (IIIB strain). In words: Anti-HIV cytoprotection assay (XTT), HIV-1 IIIB in CEM-SS cells. As to conditions: CEM-SS cell line, read-out: Inhibitory activity (EC50) against HIV-1 (IIIB strain). It counts as cell-based. In a few lines:
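CEM-SS cells infected with a pre-titrated virus dose killing 85–95% of cells by day 6; protection from HIV-induced death read by XTT formazan. Compounds screened in triplicate at 30 and 10 nM, actives retested at 2 nM; AZT six-concentration curve on each plate as positive control.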
(Tetrazolium dyes change colour on reduction, which living cells bring about.)

Data set [1] is described as follows: Pharmacokinetics in rat plasma, IV and oral. It counts as in vivo, male Sprague-Dawley rats. On the procedure:
The research was carried out on male Sprague-Dawley rats obtained from Charles River Laboratories (Germany). […] The age of the animals at the time of administration was 8-10 weeks. The animals were pre-catheterized so that all blood samples during the study of each substance could be taken from the same animals. Each substance was tested in 3 animals at each route of administration. The solution of test substances with a concentration of 0.2 mg/ml in 10% DMSO/10% Solutol/80% 0.05M N-methylglucamine was administered to rats intravenously in the tail vein at a dose of 1 mg/kg. Blood samples were collected at 5, 15, 30 min, 1, 2, 4, 8, and 24 hours after administration. Intragastric administration involved gavage using a solution with a concentration of 0.5 mg/ml in 0.5% methylcellulose at a dose of 5 mg/kg. Blood samples were collected at 15, 30 min, 1, 2, 4, 8, and 24 hours after administration. Blood (0.2 ml) was collected in polypropylene tubes containing 20 μl of 5% NaEDTA. Blood plasma was separated by centrifugation at 1500×g for 10 min and stored until testing at a temperature of −80° C. A pure acetonitrile-water (1:1) mixture (5 μl) was added to 45 μl of test samples. The samples were vortexed thoroughly for 10 seconds. Tolbutamide (100 μl) chilled to +4° C. (200 ng/ml in MeCN) was added to the samples and the mixture was vortexed. The samples were precipitated on ice at +4° C. for 15 minutes and then centrifuged at 2700 g for 10 min at +4° C. Supernatants (100 μl each) were transferred to a blank plate for HPLC/MS/MS analysis. The HPLC/MS/MS analysis was performed using an Agilent 1290 Infinity system coupled to an AB Sciex QTrap 6500 mass spectrometer. Pharmacokinetic analysis of plasma concentration vs time data was performed by a model-independent method using the Phoenix™ WinNonlin® 6.3 software (Pharsight Corp.). […]

What is called EC50 is the concentration that produces a half-maximal response. A word on the Cmax: it is the peak of the concentration-time curve. The Tmax is the time from dosing to the highest level. For `C[C@H]1CO[C@@H]2Cn3cc(C(=O)NCc4ccc(F)nc4F)c(=O)c(O)c3C(=O)N12` [Compound 1.1.19, (3S,11aR)-6-hydroxy-N-[(2,6-difluoropyridin-3-yl)methyl]-3-methyl-5,7-dioxo-2,3,5,7,11,11a-hexahydro[1,3]oxazolo[3,2-a]pyrido[1,2-d]pyrazine-8-carboxamide], the EC50 in the data set with HIV-1 (IIIB strain) was found to be 240 pM. In data set [1] (male, Sprague-Dawley, rat plasma, oral 5 mg/kg, 8 h, read-out: C8 h), the concentration at 8 h is 7910 ng/mL. For the same compound, the concentration at 24 h in data set [1] (male, Sprague-Dawley, rat plasma, oral 5 mg/kg, 24 h, read-out: C24 h) stood at 4440 ng/mL. In data set [1] (rat plasma, IV 1 mg/kg), this compound came in with an AUCINF of 367.627 µg·h/mL, an AUClast of 202.189 µg·h/mL, a Cmax of 18550 ng/mL and an MRTlast of 9.46 h. Further, in data set [1] (rat plasma, IV 1 mg/kg), the T1/2 stood at 21.2 h, the Tmax was found to be 0.08 h and the kel came out at 0.03 h⁻¹. In addition, in data set [1] (rat plasma, oral 5 mg/kg), the AUCINF was determined as 282.07 µg·h/mL, the AUClast is 176.506 µg·h/mL, the peak concentration (Cmax) is 11488 ng/mL and the MRTlast stood at 9.42 h. In data set [1] (rat plasma, oral 5 mg/kg), the T1/2 worked out at 16.5 h, the Tmax stood at 3 h and the kel was found to be 0.04 h⁻¹. Further, the “F (bioavailability)” value in data set [1] (rat, oral 5 mg/kg vs IV 1 mg/kg, F=(AUClast PO/5·AUClast IV)·100) is listed as 17.5%.
In the case of `C[C@H]1CO[C@@H]2Cn3cc(C(=O)NCc4ncc(F)cc4F)c(=O)c(O)c3C(=O)N12` [Compound 1.1.17, (3S,11aR)-6-hydroxy-N-[(3,5-difluoropyridin-2-yl)methyl]-3-methyl-5,7-dioxo-2,3,5,7,11,11a-hexahydro[1,3]oxazolo[3,2-a]pyrido[1,2-d]pyrazine-8-carboxamide], the EC50 in the data set on HIV-1 (IIIB strain) (Human immunodeficiency virus 1, IIIB, CEM-SS) was 240 pM.

Source of the values: patent US20230020329A1, “Annelated 9-hydroxy-1,8-dioxo-1,3,4,8-tetrahydro-2H-pyrido[1,2-a]pyrazine-7-carboxamides as HIV integrase inhibitors, methods of preparation and application thereof” (priority 2019, published 2023).
